Experimental data reported in BindingDB's records for doi:10.1021/jm970373j (Parke-Davis Pharmaceutical Research, 1998).

Target: Gastrin/cholecystokinin type B receptor (Cavia porcellus)
Assay: Compound was evaluated for functional activity on Cholecystokinin type B receptor (CCK-B) receptor carried out on guinea pig stomach cells.

SMILES	IC50
CCOC(=O)c1cccc(NC(=O)NNc2nc3ccccc3c(=O)n2-c2cccc(OC(C)C)c2)c1 [N-(3-ethylesterbenzoicacid)-2-[3,4-dihydro-3-[(3-Isopropoxy)phenyl]-4-oxo-2-quinazolinyl]hydrazinecarboxamide]	0.022 µM
CCOC(=O)c1cccc(NC(=O)NNc2nc3ccccc3c(=O)n2-c2ccc(Cl)cc2)c1 [N-(3-ethylesterbenzoicacid)-2-[3,4-dihydro-3-[(4-chloro)-phenyl]-4-oxo-2-quinazolinyl]hydrazinecarboxamide]	0.033 µM
CC(C)Oc1cccc(-n2c(NNC(=O)Nc3ccc(Br)cc3)nc3ccccc3c2=O)c1 [N-(4-Bromophenyl)-2-[3,4-dihydro-3-[3-(1-methylethoxy)phenyl]-4-oxo-2-quinazolinyl]hydrazinecarboxamide]	0.054 µM
